Data: patent US7662988B2, “Ester compound and its use” (Sumitomo Chemical Company, Limited, priority 2006, dated 2010)

Experiments:
[1] = tested on: Adult houseflies; experiment: Housefly knock-down test, 0.025% oil solution spray in cubic chamber; type: in vivo; conditions: 0.7 ml of 0.025% oil solution sprayed in 70 cm cubic chamber, 2 minutes after spraying
Procedure: A solution of 0.025 part of the present compound (A) in 10 parts of dichloromethane was mixed with 89.975 parts of deodorized kerosene to obtain a 0.025% oil solution.
(§1) Adult houseflies (5 males and 5 females) were left in a cubic chamber (70 cm at each side). Into the chamber, 0.7 ml of 0.025% oil solution of the present compound (A) prepared above was sprayed with a spray gun at a pressure of 8.8×10^4 Pa from a small window on the side of the chamber. Two minutes after spraying, the number of the knocked-down insects was counted (repeated twice).
The same test was carried out except that 4-propargyl-2,3,5,6-tetrafluorobenzyl (1R)-trans-3-(2-methyl-1-propenyl)-2,2-dimethylcyclopropanecarboxylate represented by the formula:
[drawing 7] (The compound described as compound 2 in TABLE 1 of EP 0196156 A1; hereinafter, referred to as the comparative compound 1) was used instead of the present compound (A).
Knock-down ratios, i.e., ratios of the number of knocked-down insects 2 minutes after the spraying to the number of tested insects, are shown in Table 1.

[2] = tested on: Adult houseflies; experiment: Housefly KT90 test, 0.00625% oil solution spray in cubic chamber; type: in vivo; conditions: 0.7 ml of 0.00625% oil solution sprayed in 70 cm cubic chamber, counted up to 10 minutes after spraying
Procedure: A solution of 0.00625 part of the present compound (A) in 10 parts of dichloromethane was mixed with 89.99375 parts of deodorized kerosene to obtain a 0.00625% oil solution.
as §1, with “0.00625%” for “0.025%”, “sprayed into the chamber” for “sprayed”, “Then, up to 10” for “Two”, “counted with time” for “counted”, “twice). The time required for knocking down 90% of the tested insects (KT90) was calculated from the results.” for “twice).”
The same tests were carried out except for using the comparative compound 1 and 4-methoxymethyl-2,3,5,6-tetrafluorobenzyl (1R)-trans-3-(2-cyano-1-propenyl)-2,2-dimethylcyclopropanecarboxylate represented by the formula:
[drawing 8] (The compound described in JP 2004-2363 A; hereinafter, referred to as the comparative compound 2.).

SMILES	Knock-down ratio (%) [1] [%]	KT90 (minutes), time required for knocking down 90% of the tested insects [2]
C#CCc1c(F)c(F)c(COC(=O)[C@@H]2[C@@H](C=C(C)C#N)C2(C)C)c(F)c1F [Present compound (A), 4-propargyl-2,3,5,6-tetrafluorobenzyl (1R)-trans-3-(2-cyano-1-propenyl)-2,2-dimethylcyclopropanecarboxylate]	100	2.0 min
C#CCc1c(F)c(F)c(COC(=O)[C@@H]2[C@@H](C=C(C)C)C2(C)C)c(F)c1F [Comparative compound 1, 4-propargyl-2,3,5,6-tetrafluorobenzyl (1R)-trans-3-(2-methyl-1-propenyl)-2,2-dimethylcyclopropanecarboxylate]	0	Not less than 10 minutes
COCc1c(F)c(F)c(COC(=O)[C@@H]2[C@@H](C=C(C)C#N)C2(C)C)c(F)c1F [Comparative compound 2, 4-methoxymethyl-2,3,5,6-tetrafluorobenzyl (1R)-trans-3-(2-cyano-1-propenyl)-2,2-dimethylcyclopropanecarboxylate]	–	4.3 min
